Broadly, the IC50 is the concentration at which inhibition is half-maximal. The low end stands for higher potency, the high end for lower potency.

The structures appear in SMILES notation.

This is an account of results in US9493464B2, “Wee1 degradation inhibitors” (The Scripps Research Institute, priority 2012, dated 2016).

One assay has as its system K328M-Wee1-luciferase. Description: Wee1-luciferase assay (stabilization of K328M-Wee1-luciferase). The conditions noted are these: HeLa cells; result in words. The class given is cell-based. From the text: Steady-state level of K328M-Wee1-Luciferase (K328M-Wee1-Luc) was divided by Luciferase level (Luc) and plotted.
Similar assays have previously been described; PubChem AID 1807.
With `CCN(CC)CCNC(=O)c1c(C)[nH]c(/C=C2\C(=O)Nc3ccc(F)cc32)c1C` [Sutent, reference compound], the “stabilization of K328M-Wee1-luciferase” value is listed as “does not stabilize K328M-Wee1-luciferase”.

Still in this assay, the particulars now being: at 250 nM, reported relative to SR-1277 = 100%.
For `c1cnc2ccc3[nH]c(CNc4nc(N5CCOCC5)nc5c4ncn5-c4ccsc4)nc3c2c1` [SR-1281], the “% Inhibition, Wee1 Degradation” value is recorded as 22.0%.

On to `CCOC(=O)c1cccc2[nH]c(CNc3nc(N4CCOCC4)nc4c3ncn4C(C)C)nc12` [SR-1283], for which the “% Inhibition, Wee1 Degradation” value is on record as 17.0%.

With `Nc1ccc2[nH]c(CNc3nc(N4CCOCC4)nc4c3ncn4-c3ccsc3)nc2c1` [SR-1286], the “% Inhibition, Wee1 Degradation” value was determined as 8.3%.

In the case of `Nc1cccc2[nH]c(CNc3nc(N4CCOCC4)nc4c3ncn4-c3ccsc3)nc12` [SR-1287], the “% Inhibition, Wee1 Degradation” value was 15.6%.

Turning to `c1ccc2[nH]c(CNc3nc(N4CCCCC4)nc4c3ncn4-c3ccsc3)nc2c1` [SR-1288], the “% Inhibition, Wee1 Degradation” value is recorded as 10.5%.

As for `C[C@@H](Nc1nc(NCc2nc3ccccc3[nH]2)c2ncn(-c3ccsc3)c2n1)c1ccccc1` [SR-1289], the “% Inhibition, Wee1 Degradation” value is on record as 9.2%.

For `c1ccc2[nH]c(CNc3nc(N4CCSCC4)nc4c3ncn4-c3ccsc3)nc2c1` [SR-1291], the “% Inhibition, Wee1 Degradation” value worked out at 11.4%.

`c1ccc2[nH]c(CNc3nc(N4CCCC4)nc4c3ncn4-c3ccsc3)nc2c1` [SR-1293]: the “% Inhibition, Wee1 Degradation” value is on record as 9.9%.

Consider `C=CCN(CC=C)c1nc(NCc2nc3ccccc3[nH]2)c2ncn(-c3ccsc3)c2n1` [SR-1295], for which the “% Inhibition, Wee1 Degradation” value came out at 8.2%.

Regarding `OCCN1CCN(c2nc(NCc3nc4ccccc4[nH]3)c3ncn(-c4ccsc4)c3n2)CC1` [SR-1296], the “% Inhibition, Wee1 Degradation” value is listed as 10.0%.

As to `c1ccc2c(c1)CCN2c1nc(NCc2nc3ccccc3[nH]2)c2ncn(-c3ccsc3)c2n1` [SR-1297], the “% Inhibition, Wee1 Degradation” value was 7.9%.

In the case of `c1ccc2[nH]c(CNc3nc(NCCN4CCOCC4)nc4c3ncn4-c3ccsc3)nc2c1` [SR-1298], the “% Inhibition, Wee1 Degradation” value is 8.1%.

For `NCCN1CCN(c2nc(NCc3nc4ccccc4[nH]3)c3ncn(-c4ccsc4)c3n2)CC1` [SR-1299], the “% Inhibition, Wee1 Degradation” value is listed as 8.6%.

For `O=C(O)c1cccc2[nH]c(CNc3nc(N4CCOCC4)nc4c3ncn4-c3ccsc3)nc12` [SR-1401], the “% Inhibition, Wee1 Degradation” value is 0.0%.

Turning to `CC(C)n1cnc2c(NCc3nc4c(C(=O)O)cccc4[nH]3)nc(N3CCOCC3)nc21` [SR-1402], the “% Inhibition, Wee1 Degradation” value stood at 0.0%.

As for `CC(C)n1cnc2c(NCc3nc4ccccc4[nH]3)nc(N3CCOCC3)nc21` [SR-648126], the “% Inhibition, Wee1 Degradation” value is recorded as 4.1%.

`c1ccc(N2CCN(c3nc(NCc4nc5ccccc5[nH]4)c4ncn(-c5ccsc5)c4n3)CC2)nc1` [SR-648378]: the “% Inhibition, Wee1 Degradation” value came out at 4.0%.

Turning to `c1ccc(-n2cnc3c(NCc4nc5ccccc5[nH]4)nc(N4CCOCC4)nc32)cc1` [SR-649967], the “% Inhibition, Wee1 Degradation” value turned out to be 4.0%.

Turning to `CC(C)n1cnc2c(NCc3nc4ccccc4[nH]3)nc(Nc3cccnc3)nc21` [SR-655534], the “% Inhibition, Wee1 Degradation” value is given as 3.4%.

With `CC(C)n1cnc2c(NCc3nc4ccccc4[nH]3)nc(Nc3ccncn3)nc21` [SR-656428], the “% Inhibition, Wee1 Degradation” value was determined as 4.0%.

`O=C(NC1CC1)c1ccc(-c2nc(NCc3nc4ccccc4[nH]3)c3ncn(-c4ccsc4)c3n2)cc1` [SR-658807]: the “% Inhibition, Wee1 Degradation” value is recorded as 3.6%.

`CC(C)n1cnc2c(NCc3nc4ccccc4[nH]3)nc(Nc3cnccn3)nc21` [SR-660754]: the “% Inhibition, Wee1 Degradation” value was determined as 5.3%.

With `c1ccc2[nH]c(CNc3nc(Nc4cnccn4)nc4c3ncn4-c3ccsc3)nc2c1` [SR-660983], the “% Inhibition, Wee1 Degradation” value is on record as 2.9%.

The assay is the same for the next values; noted with them: read-out: Wee1 Stabilization.
Take `CC(C)n1cnc2c(NCc3nc4ccccc4[nH]3)nc(N3CCOCC3)nc21` [SR-648126]: the EC50 came out at 5300 nM.

Regarding `c1ccc(N2CCN(c3nc(NCc4nc5ccccc5[nH]4)c4ncn(-c5ccsc5)c4n3)CC2)nc1` [SR-648378], the EC50 was 4300 nM.

Turning to `c1ccc(-n2cnc3c(NCc4nc5ccccc5[nH]4)nc(N4CCOCC4)nc32)cc1` [SR-649967], the EC50 was found to be 4300 nM.

Turning to `CC(C)n1cnc2c(NCc3nc4ccccc4[nH]3)nc(Nc3cccnc3)nc21` [SR-655534], the EC50 stood at 3800 nM.

Take `CC(C)n1cnc2c(NCc3nc4ccccc4[nH]3)nc(Nc3ccncn3)nc21` [SR-656428]: the EC50 worked out at 4400 nM.

Turning to `O=C(NC1CC1)c1ccc(-c2nc(NCc3nc4ccccc4[nH]3)c3ncn(-c4ccsc4)c3n2)cc1` [SR-658807], the EC50 amounted to 4100 nM.

Take `CC(C)n1cnc2c(NCc3nc4ccccc4[nH]3)nc(Nc3cnccn3)nc21` [SR-660754]: the EC50 amounted to 4000 nM.

Turning to `c1ccc2[nH]c(CNc3nc(Nc4cnccn4)nc4c3ncn4-c3ccsc3)nc2c1` [SR-660983], the EC50 was 3800 nM.

The target in the next assay is CK1δ (Homo sapiens, UniProt P48730). Briefly: In-house CK1d inhibition assay (TR-FRET). Format: biochemical. Conditions: footnote b: in-house CK1d assay. The method, then: In vitro kinase assay to detect CK1 or FLT3 activity: CK1 and FLT3 assays as well as complete kinase profile of 296 kinases was performed by Reaction Biology Corporation. For FLT3 20 μM final Abltide was used, sequence: [[…]]. For CK1 (all isoforms) 20 μM CK1 tide was used, sequence: [KRRRAL[pS]VASLPGL] in a standard kinase assay with ^32P-ATP and purified kinase. Incorporation of ^32P-ATP into the peptide was measured after a filter-binding assay. In-house CK1d inhibition assays were performed using a standard homogenous time-resolved fluorescence resonance energy transfer (TR-FRET) format in 50 mM Hepes, pH 7.0, 2.5 mM MgCl2, 0.1 mg/ml bovine serum albumin, 1 mM DL-dithiothreitol, 0.01% Triton X-100 (all from Sigma-Aldrich). Briefly, the CK1δ substrate (DEKTDDE, containing CK1 consensus sequence; 4 μL of a 500 nM stock solution) is labeled with a small Ulight acceptor dye (PerkinElmer). In the presence of 10 μL of 10 nM CK1δ, the Ulight peptide is phosphorylated at a single amino acid that is specifically recognized by a europium chelate (Eu)-labeled phosphospecific antibody. Assays were performed in the presence of 2 μL of compound at different (measured) concentrations, and reactions were stopped by adding 10 μL of 4 nM Eu-anti-p-Topo-IIa (PerkinElmer) in Lance Detection Buffer (Perkin Elmer). Upon excitation of the Eu-labeled antibody, energy is transferred to the acceptor dye resulting in the emission of detected light at 665 nm.
Chain of CK1δ (P48730 whole entry, canonical isoform): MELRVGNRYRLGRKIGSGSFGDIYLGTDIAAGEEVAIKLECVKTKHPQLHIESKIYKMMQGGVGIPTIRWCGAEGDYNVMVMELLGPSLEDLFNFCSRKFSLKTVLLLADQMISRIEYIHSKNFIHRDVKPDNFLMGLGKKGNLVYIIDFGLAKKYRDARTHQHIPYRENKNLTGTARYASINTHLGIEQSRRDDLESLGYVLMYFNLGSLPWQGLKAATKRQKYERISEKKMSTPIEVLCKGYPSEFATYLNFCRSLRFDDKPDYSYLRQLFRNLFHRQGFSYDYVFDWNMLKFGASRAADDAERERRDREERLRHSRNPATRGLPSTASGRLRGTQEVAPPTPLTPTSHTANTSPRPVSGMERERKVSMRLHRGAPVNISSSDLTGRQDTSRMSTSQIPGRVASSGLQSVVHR
(In general: In TR-FRET formats the signal depends on donor and acceptor labels being close together.)
`O=[N+]([O-])c1cccc2[nH]c(CNc3nc(N4CCOCC4)nc4c3ncn4-c3cccc(F)c3)nc12` [SR-2364] returned a half-inhibitory concentration (IC50) of 46 nM.

`O=[N+]([O-])c1cccc2[nH]c(CNc3nc(N4CCOCC4)nc4c3ncn4-c3ccccc3F)nc12` [SR-2366] yielded an IC50 of 114 nM. This IC50 lies about 2.5-fold higher than the previous one.

In turn, `O=[N+]([O-])c1cccc2[nH]c(CNc3nc(N4CCOCC4)nc4c3ncn4-c3cc(F)cc(F)c3)nc12` [SR-2368] had an IC50 of 75 nM.

In turn, `CN1CCN(c2nc(NCc3nc4cc(C(F)(F)F)ccc4[nH]3)c3ncn(-c4ccoc4)c3n2)CC1` [SR-2867] had an IC50 of 199 nM.

Compound `CN1CCN(c2nc(NCc3nc4cc(Cl)ccc4[nH]3)c3ncn(-c4cccc(F)c4)c3n2)CC1` [SR-2870] had an IC50 of 828 nM.

With `CN1CCN(c2nc(NCc3nc4cc(F)ccc4[nH]3)c3ncn(-c4cccc(F)c4)c3n2)CC1` [SR-2871], the IC50 is 190 nM.

`NC1CCN(c2nc(NCc3nc4cc(Cl)ccc4[nH]3)c3ncn(-c4ccsc4)c3n2)CC1` [SR-2875] came in with a half-inhibitory concentration (IC50) of 119 nM.

Turning to `Clc1ccc2[nH]c(CNc3nc(N4CCNCC4)nc4c3ncn4-c3ccsc3)nc2c1` [SR-2876], half-maximal inhibition (IC50) required 51 nM. Compared with the last compound, the IC50 is about 2.3-fold lower.

Turning to `c1ccc2[nH]c(CNc3nc(N4CCNCC4)nc4c3ncn4-c3ccoc3)nc2c1` [SR-2914], the IC50 is 116 nM.

Consider `CC1CN(c2nc(NCc3nc4ccccc4[nH]3)c3ncn(-c4ccsc4)c3n2)CCN1` (centres unmarked) [SR-2915], for which it took 199 nM to reach half-maximal inhibition (IC50).

`CCOC(=O)c1ccc2[nH]c(CNc3nc(N4CCNCC4)nc4c3ncn4-c3ccoc3)nc2c1` [SR-2916]: the IC50 stood at 687 nM.

Consider `Clc1ccc2[nH]c(CNc3nc(N4CCCNCC4)nc4c3ncn4-c3ccoc3)nc2c1` [SR-2917], for which the IC50 was 120 nM.

In turn, `COC(=O)c1cccc2[nH]c(CNc3nc(N4CCNCC4)nc4c3ncn4-c3ccoc3)nc12` [SR-2927] displayed an IC50 of 33 nM. Against the preceding compound, the IC50 is about 3.6-fold lower.

`CN(C)C(=O)c1cccc2[nH]c(CNc3nc(N4CCNCC4)nc4c3ncn4-c3ccoc3)nc12` [SR-2928] showed an IC50 of 107 nM.

In turn, `Fc1cccc(-n2cnc3c(NCc4nc5ccccc5[nH]4)nc(N4CCOCC4)nc32)c1` [SR-2931] showed an IC50 of 101 nM.

The compound `CN1CCN(c2nc(NCc3nc4ccccc4[nH]3)c3ncn(-c4cccc(F)c4)c3n2)CC1` [SR-2932] returned an IC50 of 306 nM.

In turn, `CCN1CCN(c2nc(NCc3nc4ccccc4[nH]3)c3ncn(-c4cccc(F)c4)c3n2)CC1` [SR-2948] returned an IC50 of 589 nM.

`CC(C)N1CCN(c2nc(NCc3nc4ccccc4[nH]3)c3ncn(-c4cccc(F)c4)c3n2)CC1` [SR-2949] had an IC50 of 2410 nM.

In turn, `Fc1cccc(-n2cnc3c(NCc4nc5c(Cl)cccc5[nH]4)nc(N4CCOCC4)nc32)c1` [SR-2950] returned an IC50 of 153 nM.

Regarding `Fc1cccc(-n2cnc3c(NCc4cccc5ccccc45)nc(N4CCOCC4)nc32)c1` [SR-3004], the IC50 is 666 nM.

For `Fc1cccc(-n2cnc3c(NCc4nc5ccccc5[nH]4)nc(N4CCCCC4)nc32)c1` [SR-3005], the IC50 was more than 10000 nM.

`Fc1cccc(-n2cnc3c(NCc4nc5ccccc5[nH]4)nc(N4CCCC4)nc32)c1` [SR-3006] showed an IC50 of 884 nM.

The compound `c1ccc(-c2cccc(-n3cnc4c(NCc5nc6ccccc6[nH]5)nc(N5CCOCC5)nc43)c2)cc1` [SR-3048] had an IC50 of more than 10000 nM.

`Fc1cccc(-n2cnc3c(NCc4nc5ccccc5[nH]4)nc(N4CCC(F)(F)CC4)nc32)c1` [SR-3060] yielded an IC50 of more than 10000 nM.

Compound `Fc1cccc(-n2cnc3c(NCc4ccc5c(c4)OCO5)nc(N4CCOCC4)nc32)c1` [SR-3061] registered an IC50 of 199 nM.

With `NC1CN(c2nc(NCc3nc4ccccc4[nH]3)c3ncn(-c4cccc(F)c4)c3n2)C1` [SR-3084], the IC50 was found to be 382 nM.

`Fc1cccc(-n2cnc3c(NCc4nc5c(F)cccc5[nH]4)nc(N4CCOCC4)nc32)c1` [SR-3086]: the IC50 is 37 nM.

In turn, `OC1CN(c2nc(NCc3nc4ccccc4[nH]3)c3ncn(-c4cccc(F)c4)c3n2)C1` [SR-3087] returned an IC50 of 482 nM. This IC50 lies about 13-fold higher than the previous one.

For the compound `NC1CN(c2nc(NCc3nc4cc(Cl)ccc4[nH]3)c3ncn(-c4cccc(F)c4)c3n2)C1` [SR-3095], the IC50 worked out at 360 nM.

`C[C@@H]1CN(c2nc(NCc3nc4cc(Cl)ccc4[nH]3)c3ncn(-c4cccc(F)c4)c3n2)C[C@H](C)O1` [SR-3096] had an IC50 of 830 nM.

For the compound `NC1CCN(c2nc(NCc3nc4cc(Cl)ccc4[nH]3)c3ncn(-c4cccc(F)c4)c3n2)C1` (centres unmarked) [SR-3098], the IC50 was found to be 150 nM.

`Fc1cccc(-n2cnc3c(NCc4nc5cc(F)ccc5[nH]4)nc(N4CCOCC4)nc32)c1` [SR-3162] had an IC50 of 88 nM.

In the case of `Fc1cccc(-n2cnc3c(NCc4nc5cc(F)ccc5[nH]4)nc(N4CCNCC4)nc32)c1` [SR-3163], the IC50 was 62 nM.
